{
  "source": "EPA's CvTdb concentration-time database",
  "test_in_all_cases": "concentration in plasma after dosing",
  "key": {"Rat [1]": {"tested_on": "Rat", "details": "9 h; dosed: Emodin; 80 mg/kg; oral; Male; F344/N"}, "Rat [2]": {"tested_on": "Rat", "details": "5 min; dosed: Emodin; 5 mg/kg; iv; Male; F344/N"}, "Rat [3]": {"tested_on": "Rat", "details": "dosed: Emodin, F344/N"}, "Rat [4]": {"tested_on": "Rat", "details": "6 h; dosed: Emodin; 80 mg/kg; oral; Female; F344/N"}, "Rat [5]": {"tested_on": "Rat", "details": "dosed: Emodin, 5 mg/kg, iv, Female, F344/N"}, "Rat [6]": {"tested_on": "Rat", "details": "dosed: Emodin, 5 mg/kg, iv, Female, F344/N", "remark": "listed apart in the source"}, "Rat [7]": {"tested_on": "Rat", "details": "40 min; dosed: Emodin; 5 mg/kg; iv; Female; F344/N"}, "Rat [8]": {"tested_on": "Rat", "details": "20 min; dosed: Emodin; 5 mg/kg; iv; Female; F344/N"}, "Rat [9]": {"tested_on": "Rat", "details": "40 min; dosed: Emodin; 5 mg/kg; iv; Female; F344/N", "remark": "listed apart in the source"}, "Rat [10]": {"tested_on": "Rat", "details": "20 min; dosed: Emodin; 5 mg/kg; iv; Male; F344/N"}, "Rat [11]": {"tested_on": "Rat", "details": "9 h; dosed: Emodin; 80 mg/kg; oral; Female; F344/N"}, "Rat [12]": {"tested_on": "Rat", "details": "dosed: Emodin, 5 mg/kg, iv, Male, F344/N"}, "Rat [13]": {"tested_on": "Rat", "details": "20 min; dosed: Emodin; 5 mg/kg; iv; Female; F344/N", "remark": "listed apart in the source"}, "Rat [14]": {"tested_on": "Rat", "details": "dosed: Emodin, 5 mg/kg, iv, Male, F344/N", "remark": "listed apart in the source"}, "Rat [15]": {"tested_on": "Rat", "details": "6 h; dosed: Emodin; 80 mg/kg; oral; Female; F344/N", "remark": "listed apart in the source"}, "Rat [16]": {"tested_on": "Rat", "details": "20 min; dosed: Emodin; 5 mg/kg; iv; Male; F344/N", "remark": "listed apart in the source"}, "Rat [17]": {"tested_on": "Rat", "details": "dosed: Emodin, 5 mg/kg, iv, Female, F344/N", "remark": "listed apart in the source"}, "Rat [18]": {"tested_on": "Rat", "details": "6 h; dosed: Emodin; 80 mg/kg; oral; Male; F344/N"}, "Rat [19]": {"tested_on": "Rat", "details": "40 min; dosed: Emodin; 5 mg/kg; iv; Male; F344/N"}, "Rat [20]": {"tested_on": "Rat", "details": "5 min; dosed: Emodin; 5 mg/kg; iv; Male; F344/N", "remark": "listed apart in the source"}, "Rat [21]": {"tested_on": "Rat", "details": "dosed: Emodin, 5 mg/kg, iv, Female, F344/N", "remark": "listed apart in the source"}, "Rat [22]": {"tested_on": "Rat", "details": "10 min; dosed: Emodin; 5 mg/kg; iv; Female; F344/N"}, "Rat [23]": {"tested_on": "Rat", "details": "9 h; dosed: Emodin; 80 mg/kg; oral; Female; F344/N", "remark": "listed apart in the source"}, "Rat [24]": {"tested_on": "Rat", "details": "10 min; dosed: Emodin; 5 mg/kg; iv; Male; F344/N"}, "Rat [25]": {"tested_on": "Rat", "details": "10 min; dosed: Emodin; 5 mg/kg; iv; Female; F344/N", "remark": "listed apart in the source"}, "Rat [26]": {"tested_on": "Rat", "details": "dosed: Emodin, 80 mg/kg, oral, Female, F344/N"}, "Rat [27]": {"tested_on": "Rat", "details": "10 min; dosed: Emodin; 5 mg/kg; iv; Male; F344/N", "remark": "listed apart in the source"}, "Rat [28]": {"tested_on": "Rat", "details": "40 min; dosed: Emodin; 5 mg/kg; iv; Male; F344/N", "remark": "listed apart in the source"}, "Rat [29]": {"tested_on": "Rat", "details": "9 h; dosed: Emodin; 80 mg/kg; oral; Male; F344/N", "remark": "listed apart in the source"}, "Rat [30]": {"tested_on": "Rat", "details": "12 h; dosed: Emodin; 80 mg/kg; oral; Male; F344/N"}, "Rat [31]": {"tested_on": "Rat", "details": "dosed: Emodin, 80 mg/kg, oral, Female, F344/N", "remark": "listed apart in the source"}},
  "data": [
    {"smiles": "Cc1cc(O)c2c(c1)C(=O)c1cc(O)cc(O)c1C2=O", "note": "[Emodin]", "values": [
      {"measurement": "concentration in plasma", "setting": "Rat [1]", "value": 153, "unit": "ng/mL"},
      {"measurement": "concentration in plasma", "setting": "Rat [2]", "value": 8480, "unit": "ng/mL"},
      {"measurement": "concentration in plasma", "setting": "Rat [3]; 2 min, 5 mg/kg, iv, Female", "value": 4970, "unit": "ng/mL"},
      {"measurement": "concentration in plasma", "setting": "Rat [3]; 2 min, 5 mg/kg, iv, Male", "value": 8380, "unit": "ng/mL"},
      {"measurement": "concentration in plasma", "setting": "Rat [3]; 5 min, 5 mg/kg, iv, Female", "value": 3040, "unit": "ng/mL"},
      {"measurement": "concentration in plasma", "setting": "Rat [3]; 5 min, 5 mg/kg, iv, Male", "value": 7820, "unit": "ng/mL"},
      {"measurement": "concentration in plasma", "setting": "Rat [3]; 10 min, 5 mg/kg, iv, Female", "value": 1650, "unit": "ng/mL"},
      {"measurement": "concentration in plasma", "setting": "Rat [3]; 10 min, 5 mg/kg, iv, Male", "value": 4660, "unit": "ng/mL"},
      {"measurement": "concentration in plasma", "setting": "Rat [3]; 20 min, 5 mg/kg, iv, Female", "value": 2400, "unit": "ng/mL"},
      {"measurement": "concentration in plasma", "setting": "Rat [3]; 20 min, 5 mg/kg, iv, Male", "value": 4970, "unit": "ng/mL"},
      {"measurement": "concentration in plasma", "setting": "Rat [3]; 40 min, 5 mg/kg, iv, Female", "value": 740, "unit": "ng/mL"},
      {"measurement": "concentration in plasma", "setting": "Rat [3]; 40 min, 5 mg/kg, iv, Male", "value": 1980, "unit": "ng/mL"},
      {"measurement": "concentration in plasma", "setting": "Rat [3]; 1 h, 5 mg/kg, iv, Female", "value": 256, "unit": "ng/mL"},
      {"measurement": "concentration in plasma", "setting": "Rat [3]; 1 h, 5 mg/kg, iv, Male", "value": 205, "unit": "ng/mL"},
      {"measurement": "concentration in plasma", "setting": "Rat [3]; 1.5 h, 5 mg/kg, iv, Female", "value": 119, "unit": "ng/mL"},
      {"measurement": "concentration in plasma", "setting": "Rat [3]; 1.5 h, 80 mg/kg, oral, Female", "value": 136, "unit": "ng/mL"},
      {"measurement": "concentration in plasma", "setting": "Rat [3]; 3 h, 80 mg/kg, oral, Female", "value": 115, "unit": "ng/mL"},
      {"measurement": "concentration in plasma", "setting": "Rat [3]; 6 h, 40 mg/kg, oral, Female", "value": 114, "unit": "ng/mL"},
      {"measurement": "concentration in plasma", "setting": "Rat [3]; 6 h, 80 mg/kg, oral, Female", "value": 143, "unit": "ng/mL"},
      {"measurement": "concentration in plasma", "setting": "Rat [3]; 6 h, 80 mg/kg, oral, Male", "value": 159, "unit": "ng/mL"},
      {"measurement": "concentration in plasma", "setting": "Rat [3]; 8 h, 40 mg/kg, oral, Female", "value": 111, "unit": "ng/mL"},
      {"measurement": "concentration in plasma", "setting": "Rat [3]; 9 h, 80 mg/kg, oral, Female", "value": 269, "unit": "ng/mL"},
      {"measurement": "concentration in plasma", "setting": "Rat [3]; 9 h, 80 mg/kg, oral, Male", "value": 126, "unit": "ng/mL"},
      {"measurement": "concentration in plasma", "setting": "Rat [3]; 12 h, 80 mg/kg, oral, Female", "value": 167, "unit": "ng/mL"},
      {"measurement": "concentration in plasma", "setting": "Rat [3]; 12 h, 80 mg/kg, oral, Male", "value": 116, "unit": "ng/mL"},
      {"measurement": "concentration in plasma", "setting": "Rat [4]", "value": 165, "unit": "ng/mL"},
      {"measurement": "concentration in plasma", "setting": "Rat [5]; 5 min", "value": 5160, "unit": "ng/mL"},
      {"measurement": "concentration in plasma", "setting": "Rat [5]; 1.5 h", "value": 151, "unit": "ng/mL"},
      {"measurement": "concentration in plasma", "setting": "Rat [6]; 2 min", "value": 5990, "unit": "ng/mL"},
      {"measurement": "concentration in plasma", "setting": "Rat [6]; 1 h", "value": 163, "unit": "ng/mL"},
      {"measurement": "concentration in plasma", "setting": "Rat [7]", "value": 928, "unit": "ng/mL"},
      {"measurement": "concentration in plasma", "setting": "Rat [8]", "value": 1190, "unit": "ng/mL"},
      {"measurement": "concentration in plasma", "setting": "Rat [9]", "value": 963, "unit": "ng/mL"},
      {"measurement": "concentration in plasma", "setting": "Rat [10]", "value": 4360, "unit": "ng/mL"},
      {"measurement": "concentration in plasma", "setting": "Rat [11]", "value": 232, "unit": "ng/mL"},
      {"measurement": "concentration in plasma", "setting": "Rat [12]; 2 min", "value": 10500, "unit": "ng/mL"},
      {"measurement": "concentration in plasma", "setting": "Rat [12]; 1 h", "value": 229, "unit": "ng/mL"},
      {"measurement": "concentration in plasma", "setting": "Rat [13]", "value": 794, "unit": "ng/mL"},
      {"measurement": "concentration in plasma", "setting": "Rat [14]; 2 min", "value": 8580, "unit": "ng/mL"},
      {"measurement": "concentration in plasma", "setting": "Rat [14]; 1 h", "value": 219, "unit": "ng/mL"},
      {"measurement": "concentration in plasma", "setting": "Rat [15]", "value": 151, "unit": "ng/mL"},
      {"measurement": "concentration in plasma", "setting": "Rat [16]", "value": 5930, "unit": "ng/mL"},
      {"measurement": "concentration in plasma", "setting": "Rat [17]; 5 min", "value": 4780, "unit": "ng/mL"},
      {"measurement": "concentration in plasma", "setting": "Rat [17]; 1.5 h", "value": 128, "unit": "ng/mL"},
      {"measurement": "concentration in plasma", "setting": "Rat [18]", "value": 108, "unit": "ng/mL"},
      {"measurement": "concentration in plasma", "setting": "Rat [19]", "value": 2200, "unit": "ng/mL"},
      {"measurement": "concentration in plasma", "setting": "Rat [20]", "value": 8390, "unit": "ng/mL"},
      {"measurement": "concentration in plasma", "setting": "Rat [21]; 2 min", "value": 6490, "unit": "ng/mL"},
      {"measurement": "concentration in plasma", "setting": "Rat [21]; 1 h", "value": 158, "unit": "ng/mL"},
      {"measurement": "concentration in plasma", "setting": "Rat [22]", "value": 2260, "unit": "ng/mL"},
      {"measurement": "concentration in plasma", "setting": "Rat [23]", "value": 198, "unit": "ng/mL"},
      {"measurement": "concentration in plasma", "setting": "Rat [24]", "value": 6180, "unit": "ng/mL"},
      {"measurement": "concentration in plasma", "setting": "Rat [25]", "value": 3010, "unit": "ng/mL"},
      {"measurement": "concentration in plasma", "setting": "Rat [26]; 3 h", "value": 255, "unit": "ng/mL"},
      {"measurement": "concentration in plasma", "setting": "Rat [26]; 12 h", "value": 184, "unit": "ng/mL"},
      {"measurement": "concentration in plasma", "setting": "Rat [27]", "value": 7370, "unit": "ng/mL"},
      {"measurement": "concentration in plasma", "setting": "Rat [28]", "value": 1700, "unit": "ng/mL"},
      {"measurement": "concentration in plasma", "setting": "Rat [29]", "value": 155, "unit": "ng/mL"},
      {"measurement": "concentration in plasma", "setting": "Rat [30]", "value": 110, "unit": "ng/mL"},
      {"measurement": "concentration in plasma", "setting": "Rat [31]; 3 h", "value": 136, "unit": "ng/mL"},
      {"measurement": "concentration in plasma", "setting": "Rat [31]; 12 h", "value": 175, "unit": "ng/mL"}
    ]}
  ]
}
